Data on 3 compounds can be found in US4528290A, “Stimulating dopamine D-1 receptors” (Eli Lilly and Company, priority 1984, dated 1985).

This assay deals with dopamine D-1 receptors (cyclic AMP efflux, striatal tissue). Put plainly: tissue or blood. Here is the method:
A second, particularly sensitive indicator of D-1 agonist activity is the determination of the cyclic AMP efflux in tissue slices using a procedure based on Stoof and Kebabian (loc. cit). In this procedure, striatal tissue is dissected from rat brains and chopped into 0.3 mm.×[…]. fragments. The tissue fragments are suspended in the appropriate buffer system (Earl's balanced salt solution, for example) and the suspension is continuously aerated with 95:5 O2 /CO2 while being maintained at 37° C. Just prior to use, the tissue fragments are transferred to fresh media to which is added bovine serum albumin (2.5 mg./ml.) and 3-isobutyl-1-methylxanthine (1 millimolar) to block degradation of cyclic AMP. The tissue fragments are incubated in buffer without drugs and are then transferred to the same media with added drug. Aliquots of incubation media, with and without drugs, are assayed for cyclic AMP concentration by a specific radioimmunoassay. The effect of the drug or drugs on efflux is expressed as a percentage of the resting efflux. The following medium was employed:
Sulpiride is known to be an antagonist on pituitary D-2 receptors. Addition of sulpiride to a test system, such as that described above, blocks any D-2 effect of a drug in reducing cyclic AMP production.

Regarding `CCCN1CCC[C@@H]2Cc3[nH]ncc3C[C@H]21` [4aR, 8aR enantiomer, 4aR,8aR-5-n-propyl-4,4a,5,6,7,8,8a,9-octahydro-1H(and 2H)-pyrazolo[4,3-g]-quinoline], the “cyclic AMP production increase by SKF38393 after addition of the compound” value (compound at 0.5×10^-6 M added to SKF38393 10^-6 molar (145% alone)) was found to be 42%.

As for `CCN1CCCC1CNC(=O)c1cc(S(N)(=O)=O)ccc1OC` (stereo not shown) [sulpiride], the “effect of sulpiride on the lowering of the SKF38393 cyclic AMP increase by the trans-(-)-enantiomer” value (sulpiride 10^-6 M) is reported as “suppressed”. The “effect of sulpiride on the increase in cyclic AMP efflux caused by A” value (sulpiride 10^-6 M with A 5 × 10^-7 M) is “no effect on the increase in cyclic AMP efflux”.

Consider `Oc1cc2c(cc1O)C(c1ccccc1)CNCC2` (stereo not shown) [SKF38393, 1,2,3,4-tetrahydro-7,8-dihydroxy-1-phenyl-1H-3-benzazepine], for which the activation at 1 µM (Rattus norvegicus, read-out: increase of cyclic AMP production) worked out at 145%.
